From patent US11180483B2, “Substituted reverse pyrimidine Bmi-1 inhibitors” (PTC Therapeutics, Inc., priority 2012, dated 2021)
pEC50: −log10 of the molar value.

tested on: Bmi-1; experiment: Sandwich ELISA Assay (Bmi-1 ELISA) in HT-1080 cells; type: cell-based
How it was run: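 Bmi-1 in lysates was measured by a three-antibody ELISA with TMB, OD450 minus OD570 reference, interpolated on a GST-tagged recombinant Bmi-1 standard curve, 0-8000 pg/mL. Lysates came from HT-1080 cells treated 40-48 h with compound, final DMSO 0.5%.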

Row | SMILES | pEC50
1 | COc1ccc(Nc2nc(-n3c(C)nc4ccc(F)cc43)nc(N)c2F)cc1 [Cpd 179, 5-fluoro-2-(6-fluoro-2-methyl-1H-benzimidazol-1-yl)-N-(4-methoxyphenyl)pyrimidine-4,6-diamine] | 8.00 to 9.00
2 | Nc1nc(-c2c(C3CC3)nn3ccccc23)nc(Nc2ccc(OC(F)F)cc2)c1F [Cpd 180, 2-(2-cyclopropylpyrazolo[1,5-a]pyridin-3-yl)-N-[4-(difluoromethoxy)phenyl]-5-fluoropyrimidine-4,6-diamine] | 5.52 to 7.00
3 | Nc1nc(-c2c(CO)nn3ccc(F)cc23)nc(Nc2ccc(OC(F)F)cc2)c1F [Cpd 181, [3-(4-amino-6-{[4-(difluoromethoxy)phenyl]amino}-5-fluoropyrimidin-2-yl)-5-fluoropyrazolo[1,5-a]pyridin-2-yl]methanol] | 7.00 to 8.00
4 | CSc1nc2ccccc2n1-c1nc(N)cc(Nc2ccc(C(F)(F)F)cc2)n1 [Cpd 182, 2-[2-(methylsulfanyl)-1H-benzimidazol-1-yl]-N-[4-(trifluoromethyl)phenyl]pyrimidine-4,6-diamine] | 5.52 to 7.00
5 | Cc1nc2ccc(F)cc2n1-c1nc(N)c(F)c(Nc2ccc(C(F)(F)F)nc2)n1 [Cpd 183, 5-fluoro-2-(6-fluoro-2-methyl-1H-benzimidazol-1-yl)-N-[6-(trifluoromethyl)pyridin-3-yl]pyrimidine-4,6-diamine] | 7.00 to 8.00
6 | Cc1ccc(Nc2nc(-n3c(C)nc4ccc(F)cc43)nc(N)c2F)cc1 [Cpd 184, 5-fluoro-2-(6-fluoro-2-methyl-1H-benzimidazol-1-yl)-N-(4-methylphenyl)pyrimidine-4,6-diamine] | 8.00 to 9.00
7 | Cc1nc2ccc(F)cc2n1-c1nc(N)c(F)c(Nc2ccc(Cl)cc2)n1 [Cpd 185, N-(4-chlorophenyl)-5-fluoro-2-(6-fluoro-2-methyl-1H-benzimidazol-1-yl)pyrimidine-4,6-diamine] | 7.00 to 8.00
8 | COc1cccc(Nc2nc(-n3c(C)nc4ccc(F)cc43)nc(N)c2F)c1 [Cpd 189, 5-fluoro-2-(6-fluoro-2-methyl-1H-benzimidazol-1-yl)-N-(3-methoxyphenyl)pyrimidine-4,6-diamine] | 5.52 to 7.00
9 | Cc1nc2ccc(F)cc2n1-c1nc(N)c(F)c(Nc2cccc(Cl)c2)n1 [Cpd 190, N-(3-chlorophenyl)-5-fluoro-2-(6-fluoro-2-methyl-1H-benzimidazol-1-yl)pyrimidine-4,6-diamine] | 5.52 to 7.00
10 | Cc1nc2ccc(F)cc2n1-c1nc(N)c(F)c(Nc2ccc(OC(F)(F)F)cc2)n1 [Cpd 191, 5-fluoro-2-(6-fluoro-2-methyl-1H-benzimidazol-1-yl)-N-[4-(trifluoromethoxy)phenyl]pyrimidine-4,6-diamine] | 7.00 to 8.00
11 | Cc1nc2ccc(F)cc2n1-c1nc(N)c(F)c(Nc2ccc(C#N)cc2)n1 [Cpd 192, 4-{[6-amino-5-fluoro-2-(6-fluoro-2-methyl-1H-benzimidazol-1-yl)pyrimidin-4-yl]amino}benzonitrile] | 5.52 to 7.00
12 | COC(=O)c1ccc(Nc2nc(-n3c(C)nc4ccc(F)cc43)nc(N)c2F)cc1 [Cpd 193, methyl 4-{[6-amino-5-fluoro-2-(6-fluoro-2-methyl-1H-benzimidazol-1-yl)pyrimidin-4-yl]amino}benzoate] | 7.00 to 8.00
13 | Cc1cccc(Nc2nc(-n3c(C)nc4ccccc43)nc(N)c2F)c1 [Cpd 194, 5-fluoro-2-(2-methyl-1H-benzimidazol-1-yl)-N-(3-methylphenyl)pyrimidine-4,6-diamine] | 5.52 to 7.00
14 | COc1cccc(Nc2nc(-n3c(C)nc4ccccc43)nc(N)c2F)c1 [Cpd 195, 5-fluoro-N-(3-methoxyphenyl)-2-(2-methyl-1H-benzimidazol-1-yl)pyrimidine-4,6-diamine] | 5.52 to 7.00
15 | Cc1ccc(Nc2cc(N)nc(-n3c(C)nc4ccccc43)n2)cc1 [Cpd 196, 2-(2-methyl-1H-benzimidazol-1-yl)-N-(4-methylphenyl)pyrimidine-4,6-diamine] | 8.00 to 9.00
16 | COc1ccc(Nc2cc(N)nc(-n3c(C)nc4ccccc43)n2)cc1 [Cpd 197, N-(4-methoxyphenyl)-2-(2-methyl-1H-benzimidazol-1-yl)pyrimidine-4,6-diamine] | 8.00 to 9.00
17 | Cc1nc2ccccc2n1-c1nc(N)cc(Nc2ccc(N(C)C)cc2)n1 [Cpd 198, N-[4-(dimethylamino)phenyl]-2-(2-methyl-1H-benzimidazol-1-yl)pyrimidine-4,6-diamine] | 8.00 to 9.00
18 | Cc1ccc(Nc2nc(-n3c(C)nc4ccccc43)nc(N)c2F)cc1 [Cpd 199, 5-fluoro-2-(2-methyl-1H-benzimidazol-1-yl)-N-(4-methylphenyl)pyrimidine-4,6-diamine] | 8.00 to 9.00
19 | COc1ccc(Nc2nc(-n3c(C)nc4ccccc43)nc(N)c2F)cc1 [Cpd 200, 5-fluoro-N-(4-methoxyphenyl)-2-(2-methyl-1H-benzimidazol-1-yl)pyrimidine-4,6-diamine] | 8.00 to 9.00
20 | Cc1nc2ccccc2n1-c1nc(N)c(F)c(Nc2ccc(Cl)cc2)n1 [Cpd 201, N-(4-chlorophenyl)-5-fluoro-2-(2-methyl-1H-benzimidazol-1-yl)pyrimidine-4,6-diamine] | 7.00 to 8.00
21 | Cc1nc2ccccc2n1-c1nc(N)c(F)c(Nc2ccc(C#N)cc2)n1 [Cpd 202, 4-{[6-amino-5-fluoro-2-(2-methyl-1H-benzimidazol-1-yl)pyrimidin-4-yl]amino}benzonitrile] | 5.52 to 7.00
22 | Cc1nc2ccccc2n1-c1nc(N)c(F)c(Nc2ccc3c(c2)OCO3)n1 [Cpd 203, N-(1,3-benzodioxol-5-yl)-5-fluoro-2-(2-methyl-1H-benzimidazol-1-yl)pyrimidine-4,6-diamine] | 8.00 to 9.00
23 | Cc1nc2ccccc2n1-c1nc(N)c(F)c(Nc2ccc(OC(F)(F)F)cc2)n1 [Cpd 204, 5-fluoro-2-(2-methyl-1H-benzimidazol-1-yl)-N-[4-(trifluoromethoxy)phenyl]pyrimidine-4,6-diamine] | 7.00 to 8.00
24 | Cc1nc2ccccc2n1-c1nc(N)cc(Nc2ccc(Cl)cc2)n1 [Cpd 209, N-(4-chlorophenyl)-2-(2-methyl-1H-benzimidazol-1-yl)pyrimidine-4,6-diamine] | 7.00 to 8.00
25 | Cc1nc2ccccc2n1-c1nc(N)cc(Nc2ccc(C#N)cc2)n1 [Cpd 210, 4-{[6-amino-2-(2-methyl-1H-benzimidazol-1-yl)pyrimidin-4-yl]amino}benzonitrile] | 5.52 to 7.00
26 | Cc1nc2ccccc2n1-c1nc(N)cc(Nc2ccc([N+](=O)[O-])cc2)n1 [Cpd 211, 2-(2-methyl-1H-benzimidazol-1-yl)-N-(4-nitrophenyl)pyrimidine-4,6-diamine] | 5.52 to 7.00
27 | Cc1nc2ccccc2n1-c1nc(N)cc(Nc2ccc(Br)cc2)n1 [Cpd 212, N-(4-bromophenyl)-2-(2-methyl-1H-benzimidazol-1-yl)pyrimidine-4,6-diamine] | 7.00 to 8.00
28 | Cc1ccc(Nc2nc(-n3c(C)nc4cc(F)c(F)cc43)nc(N)c2F)cc1 [Cpd 213, 2-(5,6-difluoro-2-methyl-1H-benzimidazol-1-yl)-5-fluoro-N-(4-methylphenyl)pyrimidine-4,6-diamine] | 8.00 to 9.00
29 | COc1ccc(Nc2nc(-n3c(C)nc4cc(F)c(F)cc43)nc(N)c2F)cc1 [Cpd 214, 2-(5,6-difluoro-2-methyl-1H-benzimidazol-1-yl)-5-fluoro-N-(4-methoxyphenyl)pyrimidine-4,6-diamine] | 7.00 to 8.00
